In patent US20220227735A1, “THERAPEUTIC METHODS AND COMPOUNDS” (RUTGERS, THE STATE UNIVERSITY OF NEW JERSEY, priority 2019, published 2022):
pIC50: −log10 of the molar value. Read-outs that look alike come from different tables or passages of the source.

What was measured:
[1] = biological target: T1, Plasmodium falciparum PKG (PfPKG) (Plasmodium falciparum, UniProt Q8I719); test: PfPKG IMAP fluorescence polarization kinase assay; format: biochemical
T1 construct: Full length PfPKG was cloned into the pTrcHisC vector for expression in BL21 (DE3) Star cells; His tag (pTrcHisC vector) (N); made in house; host or cells: E. coli BL21 (DE3) Star
Description: Full length PfPKG was cloned into the pTrcHisC vector for expression in BL21 (DE3) Star cells. An LB culture containing 50 ug/ml carbenicillin (250 mL) was grown overnight at 37° C. The following day the culture was cooled on ice for about 10-15 minutes and divided equally into two new 125 mL cultures. 125 ml of fresh LB broth containing carbenicillin was added to each flask bringing the volume of each flask to 250 ml. Cultures were shaken at 18° C. before induction with IPTG (1.0 mM) for 18-24 h. The bacterial pellet was frozen at −80° C. until protein purification. Cells were lysed with Bacterial Protein Extraction Reagent (Thermo Scientific) on ice for 10-15 min. Supernatant was obtained after centrifugation of lysate at 21,000×g for 15 min at 4° C. Supernatant was incubated for 30 minutes at 4° C. with rotation with HisPur Cobalt Resin (Thermo Scientific), pre-washed with Wash Buffer (50 mM Hepes pH 7.8, 120 mM KCl, 20 mM NaCl, 10 mM Imidazole). Resin was added to a gravity column that was allowed to empty through gravity flow. The resin was washed with Wash buffer until no more protein is eluted off the column as determined by Bradford assay. A second wash was performed with Wash buffer containing 300 mM NaCl as in the previous wash step. Bound protein was eluted in 50 mM Hepes pH 7.8, 120 mM KCl, 20 mM NaCl, 250 mM Imidazole. Protein was dialyzed overnight in 50 mM Hepes pH 7.8, 120 mM KCl, 20 mM NaCl and 10% glycerol, with two buffer exchanges. Dialyzed protein was concentrated in a Corning Spin-X concentrator and assayed for activity using the IMAP FP Progressive Screening Expression kit (Molecular Devices, catalog #R8127) following the manufacturer's protocol.
(§1) Plasmodium falciparum PKG (PfPKG) and human PKG (hPKG) kinase activity was assayed using a commercial immobilized metal ion affinity-based fluorescence polarization (IMAP) assay according to the manufactures protocol (Molecular Devices). Briefly, kinase assays (20 μl in black half volume 96 well microtiter plates) contained; 10 mM Tris-HCl, pH 7.2, 10 mM MgCl2, 0.05% NaN3, 0.01% Tween® 20, 10 uM ATP, 1 uM cGMP and 21 ng of recombinant enzyme per well. Compounds were preincubated with enzyme at 25° C. for 15 minutes and reactions were initiated with addition of 120 nM fluorescent peptide substrates, FAM-PKAtide for PfPKG and FAM-IP3R for hPKG (Molecular Devices). Fluorescent polarization was measured using a Synergy 2 Microplate reader (BioTek, Winooski, Vt.). Fluorescent polarization was read in parallel and perpendicular with an excitation wavelength of 485 nm and an emission wavelength of 528 nm. IC50 data were analyzed using a four parameter logistic curve fit using Microsoft Excel Solver.

human PKG (hPKG) = test: Human PKG IMAP fluorescence polarization kinase assay; format: biochemical; details: compound at 10 μm; recombinant hPKG, 10 uM ATP, 1 uM cGMP, FAM-IP3R substrate
Text: Human PKG, cloned into a pENTR221 vector, was obtained from DNASU.org. (HsCD00351766). It was cloned into a mammalian expression plasmid, Gateway pDEST27 (Invitrogen) for expression as a GST fusion protein, using LR Clonase II Plus enzyme (Invitrogen). The hPKG-pDEST27 plasmid was amplified in DH5a Max Efficiency Competent Cells and purified with a PureYield Plasmid Midiprep System (Promega) following the manufactures protocol. Expi293 cells were transfected with hPKG-pDEST27 using the Expifectamine 293 Transfection Kit (Gibco). After 18 hours, enhancing reagent (Gibco) was added. Cells were then collected 48 hours post-enhancing, centrifuged at 2000×g for 10 min, washed in ice cold PBS and frozen as a pellet at −80° C. until protein purification. The cell pellet was lysed with Mammalian Protein Extraction Reagent (Thermo Fisher) for 10-15 minutes. The lysate was centrifuged at 21,000×g for 15 minutes at 4° C. The supernatant was incubated for 1 h at 4° C. with glutathione resin that was pre-washed 10 times with ice cold Wash Buffer (50 mM Hepes pH 7.8, 120 mM KCl, 20 mM NaCl, 10% glycerol). The resin was loaded onto a column and washed with resin wash buffer by gravity flow until no more protein was detectable in the washes by Bradford assay. Protein was eluted with 10 mg/ml glutathione in Wash buffer. The protein was concentrated using a 30K MWCO Corning Spin X concentrator and assayed for activity as described above.
as §1

[2] = recombinant PfPKG, 10 uM ATP, 1 uM cGMP, FAM-PKAtide substrate, read-out: PfPKG (μm)

T1 sequence (Q8I719 whole entry): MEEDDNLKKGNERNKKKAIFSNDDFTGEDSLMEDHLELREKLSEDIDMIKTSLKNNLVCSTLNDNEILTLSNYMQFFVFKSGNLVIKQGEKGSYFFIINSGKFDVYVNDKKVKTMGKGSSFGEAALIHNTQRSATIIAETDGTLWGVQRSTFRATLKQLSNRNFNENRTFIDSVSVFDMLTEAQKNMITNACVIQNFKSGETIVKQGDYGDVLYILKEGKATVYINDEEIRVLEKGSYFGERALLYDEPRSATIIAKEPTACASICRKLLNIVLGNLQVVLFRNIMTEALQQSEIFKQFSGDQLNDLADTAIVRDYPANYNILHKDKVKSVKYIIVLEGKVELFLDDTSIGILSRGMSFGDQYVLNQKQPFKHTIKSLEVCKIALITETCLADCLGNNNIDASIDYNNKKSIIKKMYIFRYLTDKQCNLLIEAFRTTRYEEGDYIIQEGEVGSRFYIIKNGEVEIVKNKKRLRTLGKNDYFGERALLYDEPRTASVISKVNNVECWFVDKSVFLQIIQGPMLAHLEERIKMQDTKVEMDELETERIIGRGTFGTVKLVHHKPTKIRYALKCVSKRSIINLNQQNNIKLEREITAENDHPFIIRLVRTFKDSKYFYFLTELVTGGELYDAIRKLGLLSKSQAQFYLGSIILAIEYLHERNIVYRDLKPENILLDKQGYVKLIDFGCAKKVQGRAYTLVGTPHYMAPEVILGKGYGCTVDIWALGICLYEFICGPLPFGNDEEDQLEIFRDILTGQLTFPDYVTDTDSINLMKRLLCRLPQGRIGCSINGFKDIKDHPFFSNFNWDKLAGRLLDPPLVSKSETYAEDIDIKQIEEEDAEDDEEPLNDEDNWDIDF

Row | Structure (SMILES) | pIC50 [1, 2] | Human PKG (10 μm) (human PKG (hPKG)) | pIC50 ([1]; read-out: PfPKG (μm), recombinant PfPKG, 10 uM ATP, 1 uM cGMP, FAM-PKAtide substrate) | pIC50 [1]
1 | CNCc1c(C2CCN(C)CC2)[nH]c(-c2ccc(F)cc2)c1-c1ccncc1 [Example 23] | > 6.00 | 0 | – | –
2 | C[C@@H]1CN(C)CC[C@H]1c1cc(-c2ccncc2)c(-c2ccc(F)cc2)[nH]1 (single isomer, unassigned) [Example 32, 4-(5-(trans-1,3-dimethylpiperidin-4-yl)-2-(4-fluorophenyl)-1H-pyrrol-3-yl)pyridine] | – | 66 | > 6.00 | –
3 | CN1CCC(C)(c2cc(-c3ccncc3)c(-c3ccc(F)cc3)[nH]2)CC1 [Example 28, 4-(5-(1,4-dimethylpiperidin-4-yl)-2-(4-fluorophenyl)-1H-pyrrol-3-yl)pyridine] | – | 29 | – | > 6.00
4 | COc1ccc(-c2[nH]c(C3CCN(C)CC3)cc2-c2ccncc2)cc1 [Example 34, 4-(2-(4-methoxyphenyl)-5-(1-methylpiperidin-4-yl)-1H-pyrrol-3-yl)pyridine] | > 6.00 | 38 | – | –
5 | CN1CCC(c2cc(-c3ccncc3)c(-c3ccc(F)cc3)[nH]2)CC1 [TSP, 4-(2-(4-fluorophenyl)-5-(1-methylpiperidin-4-yl)-1H-pyrrol-3-yl)pyridine, reference compound] | > 6.00 | 59 | – | –
6 | CN1C2CCC1CC(c1cc(-c3ccncc3)c(-c3ccc(F)cc3)[nH]1)C2 (stereo not shown) [Example 27, 3-(5-(4-fluorophenyl)-4-(pyridin-4-yl)-1H-pyrrol-2-yl)-8-methyl-8-azabicyclo[3.2.1]octane] | – | 32 | – | > 6.00
7 | Cc1cnccc1-c1cc(C2CCN(C)CC2)[nH]c1-c1ccc(F)cc1 [Example 3, 4-(2-(4-fluorophenyl)-5-(1-methylpiperidin-4-yl)-1H-pyrrol-3-yl)-3-methylpyridine] | > 6.00 | 45 | – | –
8 | CN1CCC(c2cc(-c3ccn4nnnc4c3)c(-c3ccc(F)cc3)[nH]2)CC1 [Example 12, 7-(2-(4-fluorophenyl)-5-(1-methylpiperidin-4-yl)-1H-pyrrol-3-yl)tetrazolo[1,5-a]pyridine] | > 6.00 | −35 | – | –
9 | CN1CCC(c2cc(-c3ccnc(Br)c3)c(-c3ccc(F)cc3)[nH]2)CC1 [Example 2, 2-bromo-4-(2-(4-fluorophenyl)-5-(1-methylpiperidin-4-yl)-1H-pyrrol-3-yl)pyridine] | > 6.00 | 60 | – | –
10 | C[C@@H]1CN(C)CC[C@@H]1c1cc(-c2ccncc2)c(-c2ccc(F)cc2)[nH]1 (single isomer, unassigned) [Example 31, 4-(5-(cis-1,3-dimethylpiperidin-4-yl)-2-(4-fluorophenyl)-1H-pyrrol-3-yl)pyridine] | – | 82 | – | > 6.00
11 | Cc1cc(-c2cc(C3CCN(C)CC3)[nH]c2-c2ccc(F)cc2)ccn1 [Example 4, 4-(2-(4-fluorophenyl)-5-(1-methylpiperidin-4-yl)-1H-pyrrol-3-yl)-2-methylpyridine] | > 6.00 | 30 | – | –
12 | CN1CCC(c2[nH]c(-c3ccc(F)cc3)c(-c3ccncc3)c2C#N)CC1 [Example 18, 5-(4-fluorophenyl)-2-(1-methylpiperidin-4-yl)-4-(pyridin-4-yl)-1H-pyrrole-3-carbonitrile] | > 6.00 | 57 | – | –

More lines, main results first:

Row | pIC50 [1, 2] | Human PKG (10 μm) (human PKG (hPKG)) | Structure (SMILES) | pIC50 ([1]; read-out: PfPKG (μm), recombinant PfPKG, 10 uM ATP, 1 uM cGMP, FAM-PKAtide substrate) | pIC50 [1]
13 | > 6.00 | 12 | CN1CCC(c2cc(-c3ccncc3C#N)c(-c3ccc(F)cc3)[nH]2)CC1 [Example 8, 4-(2-(4-fluorophenyl)-5-(1-methylpiperidin-4-yl)-1H-pyrrol-3-yl)nicotinonitrile] | – | –
14 | > 6.00 | 12 | CN1CCC(c2[nH]c(-c3ccc(F)cc3)c(-c3ccncc3)c2CO)CC1 [Example 21, (5-(4-fluorophenyl)-2-(1-methylpiperidin-4-yl)-4-(pyridin-4-yl)-1H-pyrrol-3-yl)methanol] | – | –
15 | > 6.00 | 39 | CN1CCC(c2cc(-c3ccncc3Br)c(-c3ccc(F)cc3)[nH]2)CC1 [Example 1, 3-bromo-4-(2-(4-fluorophenyl)-5-(1-methylpiperidin-4-yl)-1H-pyrrol-3-yl)pyridine] | – | –
16 | > 6.00 | −4 | CC(O)c1cc(-c2cc(C3CCN(C)CC3)[nH]c2-c2ccc(F)cc2)ccn1 (stereo not shown) [Example 10, 1-(4-(2-(4-fluorophenyl)-5-(1-methylpiperidin-4-yl)-1H-pyrrol-3-yl)pyridin-2-yl)ethan-1-ol] | – | –
17 | > 6.00 | 3 | CC(O)c1c(C2CCN(C)CC2)[nH]c(-c2ccc(F)cc2)c1-c1ccncc1 (stereo not shown) [Example 20, 1-(5-(4-fluorophenyl)-2-(1-methylpiperidin-4-yl)-4-(pyridin-4-yl)-1H-pyrrol-3-yl)ethan-1-ol] | – | –
18 | > 6.00 | 28 | CN1CCC(c2cc(-c3ccnc(C(N)=O)c3)c(-c3ccc(F)cc3)[nH]2)CC1 [Example 5, 4-(2-(4-fluorophenyl)-5-(1-methylpiperidin-4-yl)-1H-pyrrol-3-yl)picolinamide] | – | –
19 | > 6.00 | −8 | CN1CCC(c2[nH]c(-c3ccc(F)cc3)c(-c3ccncc3)c2C(N)=O)CC1 [Example 19, 5-(4-fluorophenyl)-2-(1-methylpiperidin-4-yl)-4-(pyridin-4-yl)-1H-pyrrole-3-carboxamide] | – | –
20 | > 6.00 | 18 | CCOC(=O)c1c(C2CCN(C)CC2)[nH]c(-c2ccc(F)cc2)c1-c1ccncc1 [Example 16, Ethyl 5-(4-fluorophenyl)-2-(1-methylpiperidin-4-yl)-4-(pyridin-4-yl)-1H-pyrrole-3-carboxylate] | – | –
21 | > 6.00 | 16 | CN1CCC(c2cc(-c3ccnc(C#N)c3)c(-c3ccc(F)cc3)[nH]2)CC1 [Example 9, 4-(2-(4-fluorophenyl)-5-(1-methylpiperidin-4-yl)-1H-pyrrol-3-yl)picolinonitrile] | – | –
22 | > 6.00 | 34 | C=Cc1c(C2CCN(C)CC2)[nH]c(-c2ccc(F)cc2)c1-c1ccncc1 [Example 17, 4-(2-(4-fluorophenyl)-5-(1-methylpiperidin-4-yl)-4-vinyl-1H-pyrrol-3-yl)pyridine] | – | –
23 | > 6.00 | 43 | CCc1c(C2CCN(C)CC2)[nH]c(-c2ccc(F)cc2)c1-c1ccncc1 [Example 24, 4-(4-ethyl-2-(4-fluorophenyl)-5-(1-methylpiperidin-4-yl)-1H-pyrrol-3-yl)pyridine] | – | –
24 | > 6.00 | −1 | CN1CCC(c2cc(-c3ccncc3CO)c(-c3ccc(F)cc3)[nH]2)CC1 [Example 6, (4-(2-(4-fluorophenyl)-5-(1-methylpiperidin-4-yl)-1H-pyrrol-3-yl)pyridin-3-yl)methanol] | – | –
25 | > 6.00 | – | C[C@H]1C[C@H](c2cc(-c3ccncc3)c(-c3ccc(F)cc3)[nH]2)CCN1C (single isomer, unassigned) [Example 30, 4-(5-(trans-1,2-dimethylpiperidin-4-yl)-2-(4-fluorophenyl)-1H-pyrrol-3-yl)pyridine] | – | –
